A short description of test [1]: Growth inhibition of human DLD1 cells assessed as inhibition of cell viability after 72 hrs by MTT assay. The conditions noted are these: DLD-1, 72 h. In kind it is functional, cell-based. Background: Formazan colour is commonly taken as a measure of viable cells.
The subject of another test is HeLa. The test can be described thus: Growth inhibition of human HeLa cells assessed as inhibition of cell viability after 72 hrs by MTT assay. It is filed as functional, cell-based.

As usually defined, the IC50 is the concentration at which inhibition is half-maximal.

For `COc1cc([C@@H]2c3cc4c(cc3[C@@H](O[C@@H]3O[C@@H]5CO[C@@H](C)O[C@H]5[C@H](O)[C@H]3O)[C@H]3COC(=O)[C@H]23)OCO4)cc(OC)c1O` [ETOPOSIDE], the IC50 was 20 µM in test [1] and 16 µM in the test with HeLa.

In the case of `CC(=O)O[C@H]1CO[C@@H](O[C@@H]2C[C@]3(C)[C@H](CC[C@@H]4[C@@]5(C)CC[C@H](O)C(C)(C)[C@@H]5[C@@H](O)C[C@]43C)[C@@]3(C)C[C@@H](O[C@@H]4O[C@H](CO)[C@@H](O)[C@H](O)[C@H]4O)[C@H](O)C(C)(C)[C@H]23)[C@H](O)[C@H]1O`, the IC50 (in test [1]; in the test on HeLa) was 52 µM each time.

(Values after ChEMBL document CHEMBL3124936, “Unusual fernane and gammacerane glycosides from the aerial parts of Spergula fallax” (J Nat Prod, 2014).)
